Assay results reported in EP4692094A1 (Beijing Konruns Pharmaceutical Co., Ltd., priority 2023, dated 2024).
pIC50: −log10 of the molar value.

What was measured:
KAT6B = biological target: T1, KAT6B (Homo sapiens, UniProt Q8WYB5); assay: Enzymatic activity assay for KAT6B acetyltransferase (TR-FRET, histone substrate H3); format: biochemical; conditions: KAT6B 3 nM, Bio-H3 400 nM, AcCOA 2 µM
T1 construct: purchased active motife (Active Motif) 81224
Procedure: The acetylation effects of KAT6B on histone substrate H3, as well as KAT5, KAT7, and KAT8 on histone substrate H4, were determined using the TR-FRET (time-resolved fluorescence resonance energy transfer) method. The determination was performed according to experimental procedures similar to those in "Pharmacological Experiment I": 1.2 Preparation of compounds: The compounds prepared in the examples were each dissolved in dimethylsulfoxide to give solutions at a concentration of 10 mmol/L. • 1) The compounds in the examples were each diluted from 10 mmol/L stock solution to 0.2 mmol/L, i.e., 1 µL of the compound was added to 49 µL of DMSO, and 3-fold dilution was performed to give 10 concentrations. • 2) 50 nL of the test compounds were transferred to 384 reaction plates using Echo, two replicates for each compound, and the plates were centrifuged at a rotation speed of 1000 rpm for 1 min, the final concentration of dimethylsulfoxide (DMSO) being 0.5%. […]
For KAT8: • 3) 2.5 µL of the KAT8 enzyme solution at a final concentration of 10 nM was added to the 384 reaction plates in step 2), and the plates were centrifuged at 1000 rpm for 1 min and incubated at 25 °C for 10 min. • 4) 2.5 µL of […] at a final concentration of 300 nM and an AcCOA (acetyl-CoA) reaction solution at a final concentration of 2 µM were added to the 384 reaction plates in step 3), and the plates were centrifuged at a rotation speed of 1000 rpm for 1 min and incubated at 25 °C for 90 min. • 5) 5 µL of Eu-Ab& Ulight-SA detection solution was separately added to the 384 reaction plates in step 4) of the 4 groups described above, and the plates were centrifuged at 1000 rpm for 1 min and incubated at 25 °C for 60 min. • 6) The HTRF […] signals were read using a BMG high-throughput drug-screening multi-mode microplate reader.
The acetylation levels of the histones in the groups were analyzed by the GraphPad Prism 8 software. […]

[1] = Assay for plasma protein binding rate (equilibrium dialysis), dog plasma; format: in vitro ADME; conditions: dialysis 6 h at 37 °C, read-out: Dog (Fu%)
Procedure: (§1) 1.1 Preparation of compounds: The compounds prepared in the examples were each dissolved in dimethylsulfoxide to give solutions at a concentration of 10 mmol/L. • 1) The example compounds were each diluted from 10 mmol/L stock solution to 0.2 mmol/L, i.e., 1 µL of the compound was added to 49 µL of DMSO; • 2) 3 µL of 0.2 mmol/L test compounds were added to 597 µL of blood plasma, and the mixtures were vortexed at 1000 rpm for 2 min; • 3) 50 µL of the plasma containing the drug in 2) was taken, 50 µL of PBS was added, and 300 µL of methanol internal standard* was added to serve as a sample T0; • 4) 120 µL of the plasma containing the drug in 2) was taken and added to one side of an HTD device membrane, and 120 µL of PBS was added to the other side of the membrane; a breathable film was covered, and the plasma and the residual sample in 2) were balanced at 37 °C (100 rpm and 5% CO2) for 6 h; • 5) 50 µL of the dialyzed plasma side sample was taken, 50 µL of PBS was added, and 300 µL of methanol internal standard* was added to serve as a sample P; • 6) 50 µL of the dialyzed PBS side sample was taken, 50 µL of blank plasma was added, and 300 µL of methanol internal standard* was added to serve as a sample B; • 7) 50 µL of the plasma containing the drug in 2) was taken, 50 µL of PBS was added, and 300 µL of methanol internal standard* was added to serve as a sample T6; • 8) All samples were vortexed, mixed homogeneously, and then centrifuged at 3220 g for 40 min at 4 °C; • 9) 100 µL of the supernatant and 100 µL of purified water were mixed homogenously for liquid chromatography-mass spectrometry.
(§2) An internal standard method was used, and the plasma protein binding rate, recovery rate, and residual percentage were calculated by using Excel according to the ratio of the peak area of the sample to the peak area of the internal standard. Free rate(%) = (RatioB)/(RatioP) × 100% [formula] Binding rate(%) = 100%−Free rate% [formula] Recovery rate(%) = (RatioB + RatioP)/(RatioT0) × 100% [formula] Remaining percentage(%) = (RatioT6)/(RatioT0) × 100% [formula]
(§3) RatioB: a ratio of the peak area of the test substance on the PBS side to the peak area of the internal standard; RatioP: a ratio of the peak area of the test substance on the plasma side to the peak area of the internal standard; RatioT6: a ratio of the peak area of the sample after incubation with the test substance for 6 h to the peak area of the internal standard; RatioT0: a ratio of the peak area of the sample after incubation with the test substance for 0 h to the peak area of the internal standard. Table 8. Plasma protein binding rate (Fu%) data for various species of example compounds

[2] = Assay for plasma protein binding rate (equilibrium dialysis), mouse plasma; format: in vitro ADME; conditions: dialysis 6 h at 37 °C, read-out: Mouse (Fu%)
Procedure: as §1, §2, §3

T1 sequence (Q8WYB5 whole entry): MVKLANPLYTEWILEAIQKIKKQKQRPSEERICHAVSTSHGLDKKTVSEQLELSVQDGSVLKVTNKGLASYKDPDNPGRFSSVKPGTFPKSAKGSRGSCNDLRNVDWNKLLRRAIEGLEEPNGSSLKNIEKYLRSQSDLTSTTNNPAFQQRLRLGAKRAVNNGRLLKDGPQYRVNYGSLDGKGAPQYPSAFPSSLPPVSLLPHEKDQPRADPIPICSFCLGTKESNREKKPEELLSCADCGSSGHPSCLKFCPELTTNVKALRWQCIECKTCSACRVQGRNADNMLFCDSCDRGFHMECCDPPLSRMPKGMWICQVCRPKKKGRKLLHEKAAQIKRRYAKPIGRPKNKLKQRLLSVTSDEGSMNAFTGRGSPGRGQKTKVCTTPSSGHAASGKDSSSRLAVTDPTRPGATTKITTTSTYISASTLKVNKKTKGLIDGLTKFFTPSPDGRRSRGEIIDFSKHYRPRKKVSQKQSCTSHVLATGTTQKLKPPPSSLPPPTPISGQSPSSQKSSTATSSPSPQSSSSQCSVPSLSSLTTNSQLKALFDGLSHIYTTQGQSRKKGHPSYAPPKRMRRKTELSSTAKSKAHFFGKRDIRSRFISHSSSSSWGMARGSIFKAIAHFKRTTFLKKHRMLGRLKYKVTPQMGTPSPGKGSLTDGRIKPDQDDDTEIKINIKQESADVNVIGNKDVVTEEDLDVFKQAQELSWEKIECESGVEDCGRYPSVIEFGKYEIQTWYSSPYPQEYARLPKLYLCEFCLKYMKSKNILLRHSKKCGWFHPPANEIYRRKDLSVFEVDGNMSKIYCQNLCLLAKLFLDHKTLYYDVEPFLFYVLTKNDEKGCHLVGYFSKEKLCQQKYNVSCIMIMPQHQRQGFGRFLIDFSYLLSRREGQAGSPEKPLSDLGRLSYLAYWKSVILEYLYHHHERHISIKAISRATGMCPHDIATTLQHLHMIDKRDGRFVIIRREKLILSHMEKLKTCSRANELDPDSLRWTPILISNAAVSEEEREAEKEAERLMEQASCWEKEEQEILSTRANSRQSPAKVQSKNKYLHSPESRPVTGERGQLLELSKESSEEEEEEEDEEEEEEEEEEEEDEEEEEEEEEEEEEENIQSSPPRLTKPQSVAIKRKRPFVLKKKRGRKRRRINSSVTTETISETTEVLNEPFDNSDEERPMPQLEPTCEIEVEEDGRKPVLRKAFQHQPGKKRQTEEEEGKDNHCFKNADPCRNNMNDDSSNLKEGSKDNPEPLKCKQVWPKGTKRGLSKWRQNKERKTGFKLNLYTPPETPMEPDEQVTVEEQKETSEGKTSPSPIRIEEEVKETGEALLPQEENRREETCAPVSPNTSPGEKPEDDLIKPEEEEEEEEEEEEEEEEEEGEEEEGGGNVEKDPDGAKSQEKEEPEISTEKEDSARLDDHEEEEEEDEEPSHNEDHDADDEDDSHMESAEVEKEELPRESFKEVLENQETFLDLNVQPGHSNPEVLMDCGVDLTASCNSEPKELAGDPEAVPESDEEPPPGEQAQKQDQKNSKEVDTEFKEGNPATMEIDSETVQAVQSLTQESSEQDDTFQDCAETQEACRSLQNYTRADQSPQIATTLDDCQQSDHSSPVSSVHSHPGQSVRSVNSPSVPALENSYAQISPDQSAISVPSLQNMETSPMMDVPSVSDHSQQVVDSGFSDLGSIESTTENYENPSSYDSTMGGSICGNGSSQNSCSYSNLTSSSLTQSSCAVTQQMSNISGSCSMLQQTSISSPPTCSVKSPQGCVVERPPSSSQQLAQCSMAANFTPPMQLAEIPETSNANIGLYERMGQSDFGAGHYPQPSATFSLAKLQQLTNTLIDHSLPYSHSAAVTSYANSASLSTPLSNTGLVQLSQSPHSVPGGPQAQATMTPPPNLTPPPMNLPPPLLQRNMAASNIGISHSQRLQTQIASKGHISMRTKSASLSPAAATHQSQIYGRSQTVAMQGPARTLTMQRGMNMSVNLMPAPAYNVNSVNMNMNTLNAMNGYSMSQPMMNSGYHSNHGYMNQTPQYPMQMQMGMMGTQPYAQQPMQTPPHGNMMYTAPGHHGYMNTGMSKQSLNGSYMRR

Structure (SMILES) | pIC50 (KAT6B) | fraction unbound at 6 h, 1 µM [1] | fraction unbound at 6 h, 1 µM [2]
COc1cc2c(cc1S(=O)(=O)Nc1noc3cc(Cn4cccn4)nc(OC)c13)CCCC2 [Example 2, N-(6-((1H-Pyrazol-1-yl)methyl)-4-methoxyisoxazolo[4,5-c]pyridin-3-yl)-3-methoxy-5,6,7,8-tetrahydronaphthalene-2-sulfonamide] | 8.63 | 0.0013 | 0.0065
COc1ccc2c(c1S(=O)(=O)Nc1noc3cc(Cn4cccn4)nc(OC)c13)OCC2 [Example 9, N-(6-((1H-Pyrazol-1-yl)methyl)-4-methoxyisoxazolo[4,5-c]pyridin-3-yl)-6-methoxy-2,3-dihydrobenzofuran-7-sulfonamide] | – | 0.025 | 0.0478
COc1ccc2ccoc2c1S(=O)(=O)Nc1noc2cc(Cn3cccn3)nc(OC)c12 [Example 10, N-(6-((1H-Pyrazol-1-yl)methyl)-4-methoxyisoxazolo[4,5-c]pyridin-3-yl)-6-methoxybenzofuran-7-sulfonamide] | 8.75 | 0.0145 | 0.0512
COc1cc2c(cc1S(=O)(=O)Nc1noc3cc(Cn4cccn4)nc(OC)c13)OCC2 [Example 59, N-(6-((1H-Pyrazol-1-yl)methyl)-4-methoxyisoxazolo[4,5-c]pyridin-3-yl)-5-methoxy-2,3-dihydrobenzofuran-6-sulfonamide] | 8.02 | 0.0143 | 0.05
COc1cc2c(cc1S(=O)(=O)Nc1noc3cc(Cn4cccn4)nc(OC)c13)CCCO2 [Example 76, N-(6-((1H-Pyrazol-1-yl)methyl)-4-methoxyisoxazolo[4,5-c]pyridin-3-yl)-7-methoxy-3,4-dihydro-1H-benzopyran-6-sulfonamide] | – | 0.0065 | 0.0072
